From PubChem BioAssay AID2060907 (Molecular Pharmacology Branch, DTP, NCI, 2025)

Test system: 388556-164-R-J1-PDC complex spheroid viability
Assay: Anticancer human tumor 388556-164-R-J1-PDC patient-derived colon adenocarcinoma cell line growth inhibition [RAS]
Conditions: for IC50: curve of first compound; for viability, T/C: stronger effect = lower value
How it was run: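 Multi-cell-type spheroids: tumor cells plus HUVEC endothelial cells and mesenchymal stem cells. RAS-pathway inhibitors were combined with targeted agents, each dosed in half-log steps down from clinical Cmax, or from 10 microM when Cmax was unknown.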
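Note: spheroids exposed to compound for 7 days before readout.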
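Throughout, for viability, T/C: 100% = DMSO vehicle control luminescence.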

SMILES: CC1(C)CCC(Nc2ncc(C(F)(F)F)c(-c3c[nH]c4c(P(C)(C)=O)c(C#N)ccc34)n2)CN1 (configuration not stated) + C#Cc1c(F)ccc2cc(O)cc(-c3ncc4c(N5CC6CCC(C5)N6)nc(OCC56CCCN5CC(F)C6)nc4c3F)c12
- IC50 (second compound 0.0316 µM): > 0.3 µM
- IC50 (second compound 0.1 µM): > 0.3 µM
- IC50 (second compound 0.316 µM): > 0.3 µM
- IC50 (second compound 1 µM): > 0.3 µM
- IC50 (second compound 3.16 µM): > 0.3 µM
- IC50 (second compound 10 µM): > 0.3 µM
- viability, T/C (second compound 0.0316 µM, first compound 0.000949 µM): 111%
- viability, T/C (second compound 0.0316 µM, first compound 0.003 µM): 110%
- viability, T/C (second compound 0.0316 µM, first compound 0.00949 µM): 112%
- viability, T/C (second compound 0.0316 µM, first compound 0.03 µM): 94.9%
- viability, T/C (second compound 0.0316 µM, first compound 0.0949 µM): 118%
- viability, T/C (second compound 0.0316 µM, first compound 0.3 µM): 97.3%
- viability, T/C (second compound 0.1 µM, first compound 0.000949 µM): 110%
- viability, T/C (second compound 0.1 µM, first compound 0.003 µM): 112%
- viability, T/C (second compound 0.1 µM, first compound 0.00949 µM): 110%
- viability, T/C (second compound 0.1 µM, first compound 0.03 µM): 101%
- viability, T/C (second compound 0.1 µM, first compound 0.0949 µM): 116%
- viability, T/C (second compound 0.1 µM, first compound 0.3 µM): 92.1%
- viability, T/C (second compound 0.316 µM, first compound 0.000949 µM): 100%
- viability, T/C (second compound 0.316 µM, first compound 0.003 µM): 100%
- viability, T/C (second compound 0.316 µM, first compound 0.00949 µM): 91.1%
- viability, T/C (second compound 0.316 µM, first compound 0.03 µM): 114%
- viability, T/C (second compound 0.316 µM, first compound 0.0949 µM): 115%
- viability, T/C (second compound 0.316 µM, first compound 0.3 µM): 92.9%
- viability, T/C (second compound 1 µM, first compound 0.000949 µM): 97.1%
- viability, T/C (second compound 1 µM, first compound 0.003 µM): 92%
- viability, T/C (second compound 1 µM, first compound 0.00949 µM): 80.7%
- viability, T/C (second compound 1 µM, first compound 0.03 µM): 96.7%
- viability, T/C (second compound 1 µM, first compound 0.0949 µM): 100%
- viability, T/C (second compound 1 µM, first compound 0.3 µM): 84.2%
- viability, T/C (second compound 3.16 µM, first compound 0.000949 µM): 83%
- viability, T/C (second compound 3.16 µM, first compound 0.003 µM): 78.2%
- viability, T/C (second compound 3.16 µM, first compound 0.00949 µM): 99.8%
- viability, T/C (second compound 3.16 µM, first compound 0.03 µM): 99.5%
- viability, T/C (second compound 3.16 µM, first compound 0.0949 µM): 96.3%
- viability, T/C (second compound 3.16 µM, first compound 0.3 µM): 77.8%
- viability, T/C (second compound 10 µM, first compound 0.000949 µM): 70.7%
- viability, T/C (second compound 10 µM, first compound 0.003 µM): 65.1%
- viability, T/C (second compound 10 µM, first compound 0.00949 µM): 76.6%
- viability, T/C (second compound 10 µM, first compound 0.03 µM): 81%
- viability, T/C (second compound 10 µM, first compound 0.0949 µM): 62.7%
- viability, T/C (second compound 10 µM, first compound 0.3 µM): 63.4%
